Assay results published in patent publication US12398154B2, “Azaquinazoline pan-KRas inhibitors” (Mirati Therapeutics, Inc., priority 2020, dated 2025).

Assays:
pERK in PSN1 cells = test: Inhibition of KRas phosphorylation of ERK (Cisbio HTRF pERK assay); settings: Homo sapiens, PSN1, 3 h, read-out: Inhibition (HTRF IC50) of KRas-mediated Phosphorylation of ERK, PSN1
KRas G12V = KRas G12V (Homo sapiens, UniProt P01116, G12V); test: biochemical;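 note: KRas binding measured by TR-FRET displacement at room temperature, IC50 fitted from percent of control values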
Description: (§1) The ability of a compound to bind to KRas was measured using a TR-FRET displacement assay. […] After a 60-minute incubation at room temperature, the reaction was measured using a BMG LABTECH CLARIO star Plus via TR-FRET. […] The POC values were fit to a 4-parameter IC50 equation and the IC50 value reported.

KRas G12D = KRas G12D (Homo sapiens, UniProt P01116, G12D); test: biochemical;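 note: TR-FRET displacement binding assay on KRas, read after a one-hour incubation at room temperature, IC50 fitted from percent-of-control values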
Description: as §1

pERK in ASPC1 cells = test: Inhibition of KRas phosphorylation of ERK (Cisbio HTRF pERK assay); settings: Homo sapiens, ASPC1, read-out: Inhibition (HTRF IC50) of KRas-mediated Phosphorylation of ERK, AsPC-1
pERK in MKN1 cells = test: as above; settings: Homo sapiens, MKN-1, 3 h, read-out: Inhibition (HTRF IC50) of KRas-mediated Phosphorylation of ERK, MKN1
KRas G12R = KRas G12R (Homo sapiens, UniProt P01116, G12R); test: biochemical;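 note: TR-FRET displacement assay of compound binding to KRas, read after one hour at room temperature, potency from a four-parameter fit of percent-of-control values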
Description: as §1

pERK in HCT116 cells = test: Inhibition of KRas phosphorylation of ERK (Cisbio HTRF pERK assay); settings: Homo sapiens, HCT-116, read-out: Inhibition (HTRF IC50) of KRas-mediated Phosphorylation of ERK, HCT116
KRas G12C = KRas G12C (Homo sapiens, UniProt P01116, G12C); test: biochemical;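 note: binding to KRas assessed by TR-FRET displacement after one hour incubation at room temperature, potency fitted from percent-of-control values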
Description: as §1

KRas WT = KRas WT (Homo sapiens, UniProt P01116); test: biochemical;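 note: binding to KRas read as TR-FRET displacement after a one-hour room-temperature incubation, IC50 derived from percent-of-control values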
Description: as §1

pERK in H727 cells = test: Inhibition of KRas phosphorylation of ERK (Cisbio HTRF pERK assay); settings: Homo sapiens, NCI-H727, read-out: Inhibition (HTRF IC50) of KRas-mediated Phosphorylation of ERK, H727

Sequence of KRas G12R (P01116 1-169 isoform P01116-2 G12R): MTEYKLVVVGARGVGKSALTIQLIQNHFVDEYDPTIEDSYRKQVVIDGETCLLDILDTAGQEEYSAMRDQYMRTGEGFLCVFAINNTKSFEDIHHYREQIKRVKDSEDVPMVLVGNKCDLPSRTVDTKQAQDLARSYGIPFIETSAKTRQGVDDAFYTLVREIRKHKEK
Sequence of KRas G12C (P01116 1-169 isoform P01116-2 G12C): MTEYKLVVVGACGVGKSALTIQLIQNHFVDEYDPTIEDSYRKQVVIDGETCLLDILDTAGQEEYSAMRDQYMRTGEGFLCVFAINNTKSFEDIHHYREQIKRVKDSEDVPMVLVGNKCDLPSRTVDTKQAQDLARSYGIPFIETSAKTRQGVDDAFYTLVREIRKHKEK
Sequence of KRas G12D (P01116 1-169 isoform P01116-2 G12D): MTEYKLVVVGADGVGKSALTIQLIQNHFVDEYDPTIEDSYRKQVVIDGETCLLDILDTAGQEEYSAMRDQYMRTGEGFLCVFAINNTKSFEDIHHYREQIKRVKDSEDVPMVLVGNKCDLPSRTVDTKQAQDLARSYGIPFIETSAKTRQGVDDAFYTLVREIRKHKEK
Sequence of KRas WT (P01116 1-169 isoform P01116-2): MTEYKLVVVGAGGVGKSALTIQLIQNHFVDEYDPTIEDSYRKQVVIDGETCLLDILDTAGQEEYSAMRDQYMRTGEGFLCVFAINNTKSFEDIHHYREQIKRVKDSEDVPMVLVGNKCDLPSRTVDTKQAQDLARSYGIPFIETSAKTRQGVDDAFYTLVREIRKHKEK
Sequence of KRas G12V (P01116 1-169 isoform P01116-2 G12V): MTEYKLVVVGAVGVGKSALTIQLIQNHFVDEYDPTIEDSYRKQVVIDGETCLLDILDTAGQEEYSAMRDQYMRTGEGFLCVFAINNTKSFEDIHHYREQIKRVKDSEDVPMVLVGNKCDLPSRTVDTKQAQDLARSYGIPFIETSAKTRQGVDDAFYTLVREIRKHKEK

CCc1c(F)ccc2cc(O)cc(-c3ncc4c(NCC5CC(=O)N5)nc(OC[C@@]56CCCN5C[C@H](F)C6)nc4c3F)c12 (single isomer, unassigned) [Example 373]
IC50 (pERK in PSN1 cells): ≥ 10000 nM
IC50 (KRas G12V): ≤ 2 nM
IC50 (KRas G12D): 5 nM
IC50 (pERK in ASPC1 cells): 4070 nM
IC50 (pERK in MKN1 cells): 103 nM
IC50 (KRas G12R): ≤ 2 nM
IC50 (pERK in HCT116 cells): 3840 nM

CCc1c(F)ccc2cc(O)cc(-c3ncc4c(NCC(N)CC(=O)O)nc(OC[C@@]56CCCN5C[C@H](F)C6)nc4c3F)c12 (single isomer, unassigned) [Example 374]
IC50 (KRas G12V): 9 nM
IC50 (KRas G12D): ≤ 2 nM
IC50 (pERK in ASPC1 cells): 9380 nM
IC50 (KRas G12R): 15 nM
IC50 (pERK in HCT116 cells): ≥ 10000 nM

CCc1c(F)ccc2cc(O)cc(-c3ncc4c(N5CCC[C@]6(C5)C[C@](C)(O)C6)nc(OCC56CCCN5CCC6)nc4c3F)c12 [Example 328, trans-6-(7-(8-ethyl-7-fluoro-3-hydroxynaphthalen-1-yl)-8-fluoro-2-((hexahydro-1H-pyrrolizin-7a-yl)methoxy)pyrido[4,3-d]pyrimidin-4-yl)-2-methyl-6-azaspiro[3.5]nonan-2-ol]
IC50 (pERK in PSN1 cells): ≥ 10000 nM
IC50 (KRas G12V): 6 nM
IC50 (KRas G12D): 9 nM
IC50 (pERK in ASPC1 cells): 1720 nM
IC50 (pERK in MKN1 cells): 271 nM
IC50 (KRas G12R): 18 nM
IC50 (KRas G12C): 9 nM
IC50 (KRas WT): 9 nM
IC50 (pERK in HCT116 cells): 1280 nM

CCc1c(F)ccc2cc(O)cc(-c3ncc4c(N5CCC[C@]6(C5)C[C@@](C)(O)C6)nc(OCC56CCCN5CCC6)nc4c3F)c12 [Example 329, cis-6-(7-(8-ethyl-7-fluoro-3-hydroxynaphthalen-1-yl)-8-fluoro-2-((hexahydro-1H-pyrrolizin-7a-yl)methoxy)pyrido[4,3-d]pyrimidin-4-yl)-2-methyl-6-azaspiro[3.5]nonan-2-ol]
IC50 (pERK in PSN1 cells): ≥ 10000 nM
IC50 (KRas G12V): 1780 nM
IC50 (KRas G12D): 6600 nM
IC50 (pERK in ASPC1 cells): ≥ 20000 nM
IC50 (pERK in MKN1 cells): ≥ 10000 nM
IC50 (KRas G12R): 3380 nM
IC50 (KRas G12C): 2620 nM
IC50 (KRas WT): 1030 nM
IC50 (pERK in HCT116 cells): ≥ 20000 nM

CCc1c(F)ccc2cc(O)cc(-c3ncc4c(NCC5CCC(=O)N5)nc(OC[C@@]56CCCN5C[C@H](F)C6)nc4c3F)c12 (stereo partly drawn) [Example 371, 5-(((7-(8-ethyl-7-fluoro-3-hydroxynaphthalen-1-yl)-8-fluoro-2-(((2R,7aS)-2-fluorohexahydro-1H-pyrrolizin-7a-yl)methoxy)pyrido[4,3-d]pyrimidin-4-yl)amino)methyl)pyrrolidin-2-one]
IC50 (pERK in PSN1 cells): ≥ 10000 nM
IC50 (KRas G12V): ≤ 2 nM
IC50 (KRas G12D): 7 nM
IC50 (pERK in ASPC1 cells): ≥ 20000 nM
IC50 (pERK in MKN1 cells): 387 nM
IC50 (KRas G12R): 5 nM
IC50 (pERK in HCT116 cells): 9340 nM

CCc1c(F)ccc2cc(O)cc(-c3ncc4c(NCCC5CNC(=O)C5)nc(OC[C@@]56CCCN5C[C@H](F)C6)nc4c3F)c12 (stereo partly drawn) [Example 376, 4-(2-((7-(8-ethyl-7-fluoro-3-hydroxynaphthalen-1-yl)-8-fluoro-2-(((2R,7aS)-2-fluorotetrahydro-1H-pyrrolizin-7a(5H)-yl)methoxy)pyrido[4,3-d]pyrimidin-4-yl)amino)ethyl)pyrrolidin-2-one]
IC50 (KRas G12V): 3 nM
IC50 (KRas G12D): 16 nM
IC50 (pERK in ASPC1 cells): ≥ 10000 nM
IC50 (KRas G12R): 4 nM
IC50 (pERK in HCT116 cells): 6490 nM

CCc1c(F)ccc2cc(O)cc(-c3ncc4c(NCCN5CC(=O)NC5=O)nc(OC[C@@]56CCCN5C[C@H](F)C6)nc4c3F)c12 [Example 378, 1-(2-((7-(8-ethyl-7-fluoro-3-hydroxynaphthalen-1-yl)-8-fluoro-2-(((2R,7aS)-2-fluorohexahydro-1H-pyrrolizin-7a-yl)methoxy)pyrido[4,3-d]pyrimidin-4-yl)amino)ethyl)imidazolidine-2,4-dione]
IC50 (KRas G12V): 14 nM
IC50 (KRas G12D): 104 nM
IC50 (pERK in ASPC1 cells): ≥ 10000 nM
IC50 (KRas G12R): 25 nM
IC50 (pERK in HCT116 cells): ≥ 10000 nM

CCc1c(F)ccc2cc(O)cc(-c3ncc4c(NCCN5C(=O)CNC5=O)nc(OC[C@@]56CCCN5C[C@H](F)C6)nc4c3F)c12 [Example 379, 3-(2-((7-(8-ethyl-7-fluoro-3-hydroxynaphthalen-1-yl)-8-fluoro-2-(((2R,7aS)-2-fluorohexahydro-1H-pyrrolizin-7a-yl)methoxy)pyrido[4,3-d]pyrimidin-4-yl)amino)ethyl)imidazolidine-2,4-dione]
IC50 (pERK in PSN1 cells): ≥ 10000 nM
IC50 (KRas G12V): 14 nM
IC50 (KRas G12D): 111 nM
IC50 (pERK in ASPC1 cells): ≥ 20000 nM
IC50 (pERK in MKN1 cells): ≥ 10000 nM
IC50 (KRas G12R): 34 nM
IC50 (KRas G12C): 21 nM
IC50 (KRas WT): 26 nM
IC50 (pERK in HCT116 cells): ≥ 20000 nM

CCc1c(F)ccc2cc(O)cc(-c3ncc4c(N5CCN6C(=O)NCC6C5)nc(OC[C@@]56CCCN5C[C@H](F)C6)nc4c3F)c12 (stereo partly drawn) [Example 380, 7-(7-(8-ethyl-7-fluoro-3-hydroxynaphthalen-1-yl)-8-fluoro-2-(((2R,7aS)-2-fluorohexahydro-1H-pyrrolizin-7a-yl)methoxy)pyrido[4,3-d]pyrimidin-4-yl)hexahydroimidazo[1,5-a]pyrazin-3(2H)-one]
IC50 (pERK in PSN1 cells): ≥ 10000 nM
IC50 (KRas G12V): 51 nM
IC50 (KRas G12D): 275 nM
IC50 (pERK in ASPC1 cells): ≥ 20000 nM
IC50 (pERK in MKN1 cells): 1100 nM
IC50 (KRas G12R): 71 nM
IC50 (KRas G12C): 54 nM
IC50 (KRas WT): 18 nM
IC50 (pERK in HCT116 cells): 3220 nM

CCc1c(F)ccc2cc(O)cc(-c3ncc4c(NCCC5NC(=O)NC5=O)nc(OC[C@@]56CCCN5C[C@H](F)C6)nc4c3F)c12 (stereo partly drawn) [Example 383, 5-(2-((7-(8-ethyl-7-fluoro-3-hydroxynaphthalen-1-yl)-8-fluoro-2-(((2R,7aS)-2-fluorohexahydro-1H-pyrrolizin-7a-yl)methoxy)pyrido[4,3-d]pyrimidin-4-yl)amino)ethyl) imidazolidine-2,4-dione]
IC50 (KRas G12V): 3 nM
IC50 (KRas G12D): 13 nM
IC50 (pERK in ASPC1 cells): ≥ 10000 nM
IC50 (KRas G12R): 8 nM
IC50 (pERK in HCT116 cells): ≥ 10000 nM

CCc1c(F)ccc2cc(O)cc(-c3ncc4c(N5CCCOC(C)(C)C5)nc(OC[C@@]56CCCN5C[C@H](F)C6)nc4c3F)c12 [Example 501, 4-(4-(2,2-dimethyl-1,4-oxazepan-4-yl)-8-fluoro-2-(((2R,7aS)-2-fluorohexahydro-1H-pyrrolizin-7a-yl)methoxy)pyrido[4,3-d]pyrimidin-7-yl)-5-ethyl-6-fluoronaphthalen-2-ol]
IC50 (pERK in PSN1 cells): ≥ 10000 nM
IC50 (KRas G12V): 169 nM
IC50 (KRas G12D): 606 nM
IC50 (pERK in ASPC1 cells): 2060 nM
IC50 (pERK in H727 cells): 3230 nM
IC50 (pERK in MKN1 cells): 225 nM
IC50 (KRas G12R): 176 nM

CCc1c(F)ccc2cc(O)cc(-c3ncc4c(N5CCOC6(CCS(=O)(=O)CC6)C5)nc(OC[C@@]56CCCN5C[C@H](F)C6)nc4c3F)c12 [Example 502, 4-(7-(8-ethyl-7-fluoro-3-hydroxynaphthalen-1-yl)-8-fluoro-2-(((2R,7aS)-2-fluorohexahydro-1H-pyrrolizin-7a-yl)methoxy)pyrido[4,3-d]pyrimidin-4-yl)-1-oxa-9-thia-4-azaspiro[5.5]undecane 9,9-dioxide]
IC50 (pERK in PSN1 cells): ≥ 10000 nM
IC50 (KRas G12V): 457 nM
IC50 (KRas G12D): 638 nM
IC50 (pERK in ASPC1 cells): 2100 nM
IC50 (pERK in H727 cells): 6460 nM
IC50 (pERK in MKN1 cells): 1940 nM
IC50 (KRas G12R): 607 nM

CCc1c(F)ccc2cc(O)cc(-c3ncc4c(N5CCOC6(CCS(=N)(=O)CC6)C5)nc(OC[C@@]56CCCN5C[C@H](F)C6)nc4c3F)c12 (stereo partly drawn) [Example 503, 4-(7-(8-ethyl-7-fluoro-3-hydroxynaphthalen-1-yl)-8-fluoro-2-(((2R,7aS)-2-fluorohexahydro-1H-pyrrolizin-7a-yl)methoxy)pyrido[4,3-d]pyrimidin-4-yl)-9-imino-1-oxa-9-thia-4-azaspiro[5.5]undecane 9-oxide]
IC50 (pERK in PSN1 cells): ≥ 10000 nM
IC50 (KRas G12V): 82 nM
IC50 (KRas G12D): 305 nM
IC50 (pERK in ASPC1 cells): ≥ 10000 nM
IC50 (pERK in H727 cells): ≥ 10000 nM
IC50 (pERK in MKN1 cells): ≥ 10000 nM
IC50 (KRas G12R): 124 nM

CCc1c(F)ccc2cc(O)cc(-c3ncc4c(N5CCCC6(CC(=O)N6)C5)nc(OCC5(CN(C)C)CC5)nc4c3F)c12 (stereo not drawn) [Example 513, 6-(2-((1-((dimethylamino)methyl)cyclopropyl)methoxy)-7-(8-ethyl-7-fluoro-3-hydroxynaphthalen-1-yl)-8-fluoropyrido[4,3-d]pyrimidin-4-yl)-1,6-diazaspiro[3.5]nonan-2-one]
IC50 (pERK in PSN1 cells): ≥ 10000 nM
IC50 (KRas G12V): ≤ 2 nM
IC50 (KRas G12D): ≤ 2 nM
IC50 (pERK in ASPC1 cells): 1310 nM
IC50 (pERK in H727 cells): 869 nM
IC50 (pERK in MKN1 cells): 221 nM
IC50 (KRas G12R): 3 nM

CN(C)CC1(COc2nc(N3CCC[C@@](C)(O)C3)c3cnc(-c4cc(O)cc(Cl)c4C4CC4)c(F)c3n2)CC1 [Example 517, (R)-1-(7-(3-chloro-2-cyclopropyl-5-hydroxyphenyl)-2-((1-((dimethylamino)methyl)cyclopropyl)methoxy)-8-fluoropyrido[4,3-d]pyrimidin-4-yl)-3-methylpiperidin-3-ol]
IC50 (pERK in PSN1 cells): ≥ 10000 nM
IC50 (KRas G12V): 3 nM
IC50 (KRas G12D): ≤ 2 nM
IC50 (pERK in ASPC1 cells): 203 nM
IC50 (pERK in H727 cells): 321 nM
IC50 (pERK in MKN1 cells): 42 nM
IC50 (KRas G12R): 6 nM
